The results in this text go back to patent US20220324865A1 (Bayer Aktiengesellschaft, priority 2018, published 2022).

In this experiment the target is T1, human EP3 receptor (Homo sapiens, UniProt P43115).
T1 construct: expressed in transfected cells; host or cells: CHO K1 (Chinese Hamster Ovary), stably co-transfected with Galpha16 and mitochondrial clytin
T1 sequence (P43115 1-390): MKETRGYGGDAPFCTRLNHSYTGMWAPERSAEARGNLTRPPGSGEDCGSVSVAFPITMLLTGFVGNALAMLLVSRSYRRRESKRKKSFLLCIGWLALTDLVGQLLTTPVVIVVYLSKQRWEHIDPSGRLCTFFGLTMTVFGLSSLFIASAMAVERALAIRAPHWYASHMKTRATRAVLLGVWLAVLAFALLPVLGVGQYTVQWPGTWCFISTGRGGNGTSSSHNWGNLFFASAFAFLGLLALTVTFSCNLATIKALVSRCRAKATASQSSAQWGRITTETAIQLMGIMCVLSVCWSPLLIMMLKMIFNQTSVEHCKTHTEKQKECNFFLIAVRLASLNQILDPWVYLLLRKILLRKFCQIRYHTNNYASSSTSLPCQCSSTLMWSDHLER
Nature of the experiment: Cellular in vitro assay for determining EP3 receptor activity (human EP3 cell line, sulprostone-stimulated calcium luminescence). The conditions noted are these: CHO cells expressing human EP3 and mitochondrial Clytin; antagonist mode, sulprostone at EC50; read-out: EP3 CHO mtCLY ANTAG IC50. Type of experiment: cell-based. Put shortly: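 CHO K1 cells stably expressing human EP3 with Gα16 and mitochondrial Clytin, loaded overnight with coelenterazine. Compounds added 10 min before sulprostone at its EC50; antagonism read immediately as reduced calcium-driven luminescence, quadruplicate points.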
As to `Cc1cc(-c2cn3nc(C(=O)NC(C)(C)C4CC4)c(C4CC4)c3c(=O)[nH]2)ccc1Cl` [6-301], the IC50 worked out at 1.4 nM.
For `Cc1ccc(-c2[nH]c(=O)c3c(C4CC4)c(C(=O)N[C@@H](c4ccc(F)cc4)C(F)(F)CO)nn3c2F)cc1Cl` [6-662], the IC50 worked out at 6.1 nM.
`COC[C@@H](NC(=O)c1nn2cc(-c3cnc4cccc(C)c4c3)[nH]c(=O)c2c1C(C)C)c1ccccc1` [Example 1-87, N-[(1S)-2-Methoxy-1-phenylethyl]-6-(5-methylquinolin-3-yl)-4-oxo-3-(propan-2-yl)-4,5-dihydropyrazolo[1,5-a]pyrazine-2-carboxamide]: the IC50 worked out at 2.85 nM.
For the compound `COc1ccc(C(C)NC(=O)c2nn3cc(-c4ccc5ccccc5c4)[nH]c(=O)c3c2C#N)cc1` (stereo not drawn) [Example 3-51, 3-Cyano-N-[1-(4-methoxyphenyl)ethyl]-6-(2-naphthyl)-4-oxo-5H-pyrazolo[1,5-a]pyrazine-2-carboxamide], the IC50 came out at 1.85 nM.
Regarding `COc1ccc(C2(NC(=O)c3nn4cc(-c5ccc(Cl)c(C)c5)[nH]c(=O)c4c3C(F)(F)F)CN(C)C2)cc1` [6-213], the IC50 was determined as 3.15 nM.
Consider `Cc1ccc(-c2cn3nc(C(=O)N[C@@H](c4ccc(F)cc4)C(F)(F)CO)c(C(F)(F)F)c3c(=O)[nH]2)cc1F` [6-141], for which the IC50 turned out to be 2.23 nM.
As for `Cc1cc(-c2cn3nc(C(=O)NCC(O)(C(F)(F)F)C(F)(F)F)c(C4CC4)c3c(=O)[nH]2)ccc1Cl` [6-305], the IC50 turned out to be 2.95 nM.
With `Cc1cc(-c2cn3nc(C(=O)NC4CCN(C5CC5)C4)c(C(F)(F)F)c3c(=O)[nH]2)ccc1Cl` (single isomer, unassigned) [6-241], the IC50 worked out at 9.5 nM.
As to `Cc1cc(-c2cn3nc(C(=O)NCC(C)(N)C(F)(F)F)c(C4CC4)c3c(=O)[nH]2)ccc1Cl` (racemic) [6-319], the IC50 amounted to 1.17 nM.
`CC(CC(F)(F)F)NC(=O)c1cc2c(=O)[nH]c(-c3ccc4ccccc4c3)cn2n1` (stereo not drawn) [6-52]: the IC50 was determined as 3.55 nM.
On to `CC(C)c1c(C(=O)N[C@H](C)C2CC2)nn2cc(-c3ccc(Cl)c(F)c3)[nH]c(=O)c12` [6-540], for which the IC50 is 0.85 nM.
`Cc1ccc(-c2cn3nc(C(=O)N[C@H](C)C4CC4)c(C(F)(F)F)c3c(=O)[nH]2)cc1C` [6-120]: the IC50 amounted to 0.78 nM.
`Cc1ccc(-c2cn3nc(C(=O)NC(c4ccc(F)cc4)C4(O)CC4)c(C4CC4)c3c(=O)[nH]2)cc1F` (single isomer, unassigned) [6-382]: the IC50 was 0.78 nM.
With `Cc1ccc(-c2cn3nc(C(=O)N[C@@H](CO)C(F)(F)F)c(C4CC4)c3c(=O)[nH]2)cc1F` [6-393] the figure was 0.85 nM.
Take `Cc1ccc(-c2cn3nc(C(=O)N[C@@H](c4ccc(F)cc4)C(F)(F)CO)c(C4CC4)c3c(=O)[nH]2)cc1Cl` [6-256]: the IC50 came to 1.1 nM.
As for `O=C(NCCc1cccc(F)c1)c1cc2c(=O)[nH]c(-c3ccc4ccccc4c3)cn2n1` [Example 2-52, N-[2-(3-Fluorophenyl)ethyl]-6-(2-naphthyl)-4-oxo-4,5-dihydropyrazolo[1,5-a]pyrazine-2-carboxamide], the IC50 stood at 4.4 nM.
On to `Cc1nn(C(C)CNC(=O)c2cc3c(=O)[nH]c(-c4ccc5ccccc5c4)cn3n2)c(C)c1Cl` (stereo not drawn) [Example 2-46, N-[2-(4-Chlor-3,5-dimethyl-1H-pyrazol-1-yl)propyl]-6-(2-naphthyl)-4-oxo-4,5-dihydropyrazolo[1,5-a]pyrazine-2-carboxamide], for which the IC50 stood at 2.95 nM.
With `CCN1CC(NC(=O)c2nn3cc(-c4ccc(C)c(C)c4)[nH]c(=O)c3c2C(F)(F)F)(c2ccc(F)cc2)C1` [Example 1-176, 6-(3,4-Dimethylphenyl)-N-[1-ethyl-3-(4-fluorophenyl)azetidin-3-yl]-4-oxo-3-(trifluoromethyl)-4,5-dihydropyrazolo[1,5-a]pyrazine-2-carboxamide] the figure was 1.67 nM.

Broadly, the IC50 is the concentration needed to halve the response being measured.
